# Assays:
# [1] = Cholesterol crystal mass in model bile
# Experimental: (§1) EYL, cholesterol and Na-TC mixtures were dissolved in CHCl3/CH3OH (2:1 v/v), dried under N2 at room temperature, lyophilized overnight and kept at −20°C. under argon until used. Model bile solutions were prepared by suspending the dried lipids in 150 mM NaCl, 1.5 mM disodium EDTA, 50 mM Tris-HCl pH 8.0 and incubating the suspension at 55° C. for 1 hour. The solubilized model biles were incubated, in sealed vials under argon, at 37° C. for the duration of the experiment. Aliquots from the models were examined daily.
# Chemical analyses of cholesterol were performed on each sample on the last day of the experiment (day 14), as previously described (G. J. Somjen see above). The samples were collected from the micro wells, centrifuged in an Airfuge (Beckman) at 70,000 rpm for 5 min. Separate determinations were performed on the total sample (before centrifugation) as well as on the supernatant solution. The amount of cholesterol in the precipitated pellets was calculated by subtracting the amounts in the supernatant solutions from the total. […] The crystal mass was also measured spectrophotometrically as the OD difference between day 0 and day 14 of the incubation.
# Cholesterol 15 mM, EYL […]. […]
# All samples were incubated at 37° C. for 100 hrs. The difference in the optical density between 100 hrs. and 0 hrs.
# [2] = Crystal observation time (nucleation time) assay in model bile; details: for effect on nucleation time versus control solution: 20% of NaTC replaced by the specific conjugate
# Experimental: Aliquots from each model bile were examined daily by polarized light microscopy. COT was defined as the initial time of detection of at least three cholesterol monohydrate crystals per microscopic field at 100 fold magnification.
# Cholesterol 15 mM, EYL 30 ml, NaTC 150 mL. […] In the test solutions 20 mole percent of NaTC was replaced by an equimolar amount of each specific fatty acid/bile acid conjugate tested.
# [3] = Crystal growth rate (CGR) assay in model bile
# Experimental: as §1
# Crystal growth was monitored spectrophotometrically using a microplate reader (SPECTRA-STL, Austria) (G. J. Somjen, et al., J. Lipid Res., 38, […] 1048-1052). Aliquots (50 μl) of lipid solutions were mixed and shaken vigorously with equivalent volumes of Na-taurodeoxycholate (200 mM), in microplate wells. After 60 minutes at room temperature, the microplates were shaken again and the absorbance, at 405 nm, in each well was measured. Each model was prepared in triplicate and sampled in duplicate for measurement.
# The data were collected and analyzed by an IBM compatible personal computer, and the optical density (OD), averaged for triplicate preparations, was calculated. A graph describing the averaged OD changes for each solution was plotted. The slope in the steepest region of the curve was determined by a linear regression fit to at least three measurements and defined as the CGR. CGR and OD differences between day 0 and day 14 were calculated for each model.
# [4] = Cholesterol crystal appearance in pooled native human gallbladder bile; details: 10 mM test compound; 37° C.; incubation period of 21 days; control bile showed crystals from day 2
# Experimental: Native human gallbladder bile was obtained from cholesterol gallstone patients at cholecystectomy. Pooled bile from several patients was cholesterol enriched by incubation with dried cholesterol or by mixing with a concentrated model bile prior to use in experiments in order to facilitate crystallization.
# When the test compound (at a concentration of 10 mM) was incubated with pooled native human gallbladder bile from patients with cholesterol gallstones, the results were as follows:
# In the native human bile, from which cholesterol crystals were removed by prior ultracentrifugation for 2 hours, new cholesterol crystals were observed from day 2 of incubation (at 37° C.). Crystal numbers increased progressively reaching a peak of more than 150 crystals per microscopic field on day 14.
# [5] = Oral PalC in hamsters, TLC of gallbladder bile; assay type: in vivo; details: per os 10-15 mg/animal/day
# Experimental: Male, 6-7 weeks old hamsters weighing 79-83 g were maintained in an animal house with ad libidum access to water and chow.
# Test hamsters were given per os by a special syringe 10-15 mg/animal/day of PalC dissolved in 1 ml of saline. Control animals were given an equivalent volume of saline alone. […] On the second day 4 hours after the application of the PalC in saline to the respective animals they were killed by an overdose of chloroform vapors. The abdomens were opened, the bile ducts were tied up, the gallbladders were excised and rinsed twice in saline. They were then placed on the top of conical plastic tubes and incised. The bile was collected at the bottom of the tubes.
# Bile samples were centrifuged (Eppendorf centrifuge) for 5 min. at 2000 rpm. Debris was discarded and the supernatant was extracted according to the Folch procedure (chloroform: methanol 2:1). After partition with water, the lipid phase was analyzed by thin layer chromatography on silica gel 60 thin layer plates (Merck). The eluent was dichloromethane:methanol:acetic acid (100:5:1, v:v:v). Samples were compared with a true standard, Reference front (Rf) about 0.2 after development with I2 vapors.
# [6] = fed regularly to humans; cited from earlier work
# [7] = 20% of Na taurocholate replaced by test compound, vs control model bile
# [8] = 10% of NaTC replaced by PalC (B)
# [9] = test compound added to whole model bile at 20% of bile salts (F)
compound,measurement,setting,value
"CCCCCCCCCCCCCCCCCCCC(=O)N[C@H]1CC[C@@]2(C)[C@@H](C1)C[C@@H](O)[C@@H]1[C@@H]2C[C@H](O)[C@]2(C)[C@@H]([C@H](C)CCC(=O)O)CC[C@@H]12 [C20 conjugate, 3β-Arachidylamido-7α,12α-dihydroxy-5β-cholan-24-oic Acid]","final cholesterol crystal mass, % of the control","[1]; 20 mole percent of NaTC replaced, 14 days of incubation",38%
same,nucleation time (crystal observation time) prolonged by,[2]; [7],more than 360%
same,effect on nucleation time versus control solution,[2],prolongation of the nucleation time
"CCCCCCCCCCCCCC(=O)N[C@H]1CC[C@@]2(C)[C@@H](C1)C[C@@H](O)[C@@H]1[C@@H]2C[C@H](O)[C@]2(C)[C@@H]([C@H](C)CCC(=O)O)CC[C@@H]12 [Example C14, 3β-Myristylamido-7α,12α-dihydroxy-5β-cholan-24-oic Acid]",effect on nucleation time versus control solution,[2],did not prolong the nucleation time
"CCCCCCCCCCCCCCCC(=O)N[C@H]1CC[C@@]2(C)[C@@H](C1)C[C@@H](O)[C@@H]1[C@@H]2C[C@H](O)[C@]2(C)[C@@H]([C@H](C)CCC(=O)O)CC[C@@H]12 [PalC, 3β-Palmitylamido-7α,12α-dihydroxy-5β-cholan-24-oic Acid]",crystal growth rate reduced by,[3]; [8],70%
same,cholesterol crystal growth rate reduced by,[3]; 20% of Na taurocholate replaced by test compound,67%
same,cholesterol crystal growth rate reduced by,[3]; [9],59%
same,cholesterol mass on day 14 reduced by,[1]; [8],17%
same,total cholesterol crystal mass reduced by,"[1]; 20% of Na taurocholate replaced by test compound, 14 days of incubation",53%
same,total crystal mass reduced by,"[1]; test compound added to whole model bile at 20% of bile salts (F), 14 days of incubation",51%
same,new cholesterol crystals during incubation,[4],no cholesterol crystals were seen
same,behaviour of animals in the course of treatment,[5],behaved normally
same,presence in gallbladder bile by TLC (absorbed and excreted into bile),[5]; bile taken on second day 4 hours after application,presence of PalC in the bile
same,nucleation time (crystal observation time) prolonged by,[2]; [7],167%
same,effect on nucleation time versus control solution,[2],prolongation of the nucleation time
same,nucleation time (crystal observation time) prolonged by,[2]; [9],200%
"CCCCCCCCCCCCCCCCCC(=O)N[C@H]1CC[C@@]2(C)[C@@H](C1)C[C@@H](NC(=O)CCCCCCCCCCCCCCCCC)[C@@H]1[C@@H]2CC[C@]2(C)[C@@H]([C@H](C)CCC(=O)O)CC[C@@H]12 [distearoyl ursodeoxycholate, 3β,7α-Distearylamido-5β-ursodeoxycholan-24-oic Acid]",retardation of cholesterol crystallization (nucleation time) versus control model bile and equimolar cholic acid,"[2]; 20 mole % of NaTC replaced, 37° C.",particularly effective
C[C@H](CCC(=O)O)[C@H]1CC[C@H]2[C@@H]3[C@@H](O)C[C@@H]4C[C@H](O)CC[C@]4(C)[C@H]3CC[C@]12C [ursodeoxycholic acid],share of biliary bile acids,[6],30-50%
